This passage reports TGI results from PubChem BioAssay (NCI).

Among the test systems are DLD-1 colon; DMS 114 small cell lung; DMS 273 small cell lung; HOP-18 NSCLC; KM20L2 colon; LXFL 529 NSCLC; SNB-78 CNS; RXF-631 renal.
Experiment in all cases: growth of human tumour cells (NCI), 48 h

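These data come from cells grown in 96-well plates and exposed to compound for 48 hours at five concentrations. TGI marks complete inhibition of growth.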

For `C[C@H](CCC1SC1(C)C)C1CCC2(C)C3=C(CC[C@]12C)[C@@]1(C)CC[C@H](O)C(C)(C)C1CC3` (some centres not stated), the TGI with DLD-1 colon, with DMS 114 small cell lung, in the assay with DMS 273 small cell lung, in the assay with HOP-18 NSCLC, with KM20L2 colon and in the assay on LXFL 529 NSCLC was greater than 100 µM each time.

Take `C/C(N=NS(=O)(=O)c1ccc([N+](=O)[O-])cc1)=C1\C=CC=CN1O`: the TGI in the assay with DLD-1 colon, with DMS 114 small cell lung, in the assay on DMS 273 small cell lung, in the assay with HOP-18 NSCLC, in the assay with KM20L2 colon and in the assay on LXFL 529 NSCLC was greater than 100 µM each time. The TGI in the assay with SNB-78 CNS was greater than 100 µM.

For `NC(=S)N1N=C2c3ccccc3CC[C@H]2[C@@H]1c1ccc(Cl)cc1`, the TGI is greater than 100 µM with DLD-1 colon; 70.6 µM with DMS 114 small cell lung; 73.3 µM in the assay on DMS 273 small cell lung; greater than 100 µM in the assay on HOP-18 NSCLC; greater than 100 µM in the assay on KM20L2 colon; greater than 100 µM with LXFL 529 NSCLC. This molecule also came in with a TGI with SNB-78 CNS greater than 100 µM.

On to `Cn1cc(C(=O)c2ccccc2)cc(C(=O)c2ccccc2)c1=O`, for which the TGI in the assay on DLD-1 colon, in the assay with DMS 114 small cell lung, in the assay on DMS 273 small cell lung, with KM20L2 colon, in the assay on LXFL 529 NSCLC and in the assay on RXF-631 renal was greater than 100 µM throughout. The same molecule showed a TGI with SNB-78 CNS greater than 100 µM.

As to `C#CCN(Cc1ccc2nc(-c3ccccc3)c(N)nc2c1)c1cc(OC)c(OC)c(OC)c1`, the TGI in the assay with DMS 114 small cell lung is 37.7 µM; in the assay on DMS 273 small cell lung it was 42.8 µM; in the assay with KM20L2 colon, greater than 100 µM; in the assay with LXFL 529 NSCLC it was 91.2 µM; in the assay with SNB-78 CNS it was 78.9 µM.

Take `O=c1[nH]cnc2c(COCCO)c[nH]c12`: the TGI with DLD-1 colon, in the assay on DMS 114 small cell lung, in the assay on DMS 273 small cell lung, with HOP-18 NSCLC, in the assay on KM20L2 colon and with LXFL 529 NSCLC was greater than 100 µM in each case. Moreover, the TGI in the assay on RXF-631 renal and in the assay with SNB-78 CNS was greater than 100 µM in each case.

On to `Cc1nc2cc(Nc3ccccc3C(=O)O)ccc2s1`, for which the TGI in the assay with DLD-1 colon, with DMS 114 small cell lung, in the assay with DMS 273 small cell lung, in the assay on HOP-18 NSCLC, with KM20L2 colon and with LXFL 529 NSCLC was greater than 100 µM each time.

`CCn1c2ccccc2c2c(-c3ccccc3)cc3c(c21)C(=O)N(c1ccccc1)C3=O`: the TGI with DLD-1 colon, in the assay with DMS 114 small cell lung, with DMS 273 small cell lung, with KM20L2 colon, with LXFL 529 NSCLC and with SNB-78 CNS was greater than 100 µM each time.

As to `COc1cc(C(C)O)c[n+](CCC2CNc3ccccc32)c1` (configuration not stated), the TGI in the assay with DLD-1 colon, in the assay on DMS 114 small cell lung, in the assay on DMS 273 small cell lung, with KM20L2 colon and in the assay on LXFL 529 NSCLC was greater than 100 µM each time.
